Source: BigSolDB 2.1

c1ccc2ccccc2c1
solubility (mole fraction) (in DMF, 278.05 K): 0.162 | solubility (mole fraction) (in DMF, 283.05 K): 0.185 | solubility (mole fraction) (in DMF, 288.15 K): 0.215 | solubility (mole fraction) (in DMF, 292.75 K): 0.244 | solubility (mole fraction) (in DMF, 298.05 K): 0.281 | solubility (mole fraction) (in DMF, 303.25 K): 0.307 | solubility (mole fraction) (in DMF, 307.95 K): 0.354 | solubility (mole fraction) (in DMF, 313.15 K): 0.406 | solubility (mole fraction) (in DMF, 318.15 K): 0.465 | solubility (mole fraction) (in NMP, 278.18 K): 0.269 | solubility (mole fraction) (in NMP, 283.25 K): 0.289 | solubility (mole fraction) (in NMP, 288.17 K): 0.307 | solubility (mole fraction) (in NMP, 293.2 K): 0.336 | solubility (mole fraction) (in NMP, 298.16 K): 0.379 | solubility (mole fraction) (in NMP, 303.21 K): 0.41 | solubility (mole fraction) (in NMP, 308.17 K): 0.438 | solubility (mole fraction) (in NMP, 313.16 K): 0.486 | solubility (mole fraction) (in NMP, 318.21 K): 0.535 | solubility (mole fraction) (in NMP, 323.27 K): 0.577 | solubility (mole fraction) (in THF, 278.6 K): 0.241 | solubility (mole fraction) (in THF, 284.35 K): 0.273 | solubility (mole fraction) (in THF, 288.25 K): 0.292 | solubility (mole fraction) (in THF, 293.25 K): 0.324 | solubility (mole fraction) (in THF, 298 K): 0.352 | solubility (mole fraction) (in THF, 303.2 K): 0.385 | solubility (mole fraction) (in THF, 308.19 K): 0.428 | solubility (mole fraction) (in THF, 313.25 K): 0.469 | solubility (mole fraction) (in THF, 318.35 K): 0.51 | solubility (mole fraction) (in THF, 323.2 K): 0.566 | solubility (mole fraction) (in THF, 328.21 K): 0.6 | solubility (mole fraction) (in THF, 333.22 K): 0.629 | solubility (mole fraction) (in acetone, 278.15 K): 0.124 | solubility (mole fraction) (in acetone, 283.15 K): 0.143 | solubility (mole fraction) (in acetone, 288.05 K): 0.171 | solubility (mole fraction) (in acetone, 293.25 K): 0.194 | solubility (mole fraction) (in acetone, 298.35 K): 0.226 | solubility (mole fraction) (in acetone, 303 K): 0.268 | solubility (mole fraction) (in acetone, 308.1 K): 0.307 | solubility (mole fraction) (in acetone, 313.05 K): 0.361 | solubility (mole fraction) (in acetone, 318.15 K): 0.417 | solubility (mole fraction) (in acetone, 323.05 K): 0.477 | solubility (mole fraction) (in ethyl acetate, 278.2 K): 0.174 | solubility (mole fraction) (in ethyl acetate, 283.17 K): 0.191 | solubility (mole fraction) (in ethyl acetate, 288.21 K): 0.217 | solubility (mole fraction) (in ethyl acetate, 293.19 K): 0.233 | solubility (mole fraction) (in ethyl acetate, 298.25 K): 0.276 | solubility (mole fraction) (in ethyl acetate, 303.2 K): 0.314 | solubility (mole fraction) (in ethyl acetate, 308.21 K): 0.357 | solubility (mole fraction) (in ethyl acetate, 313.23 K): 0.406 | solubility (mole fraction) (in ethyl acetate, 318.17 K): 0.465 | solubility (mole fraction) (in ethyl acetate, 323.21 K): 0.526 | solubility (mole fraction) (in isobutyl acetate, 278.18 K): 0.183 | solubility (mole fraction) (in isobutyl acetate, 283.2 K): 0.205 | solubility (mole fraction) (in isobutyl acetate, 288.22 K): 0.232 | solubility (mole fraction) (in isobutyl acetate, 293.23 K): 0.259 | solubility (mole fraction) (in isobutyl acetate, 298.19 K): 0.299 | solubility (mole fraction) (in isobutyl acetate, 303.23 K): 0.335 | solubility (mole fraction) (in isobutyl acetate, 308.45 K): 0.387 | solubility (mole fraction) (in isobutyl acetate, 313.2 K): 0.433 | solubility (mole fraction) (in isobutyl acetate, 318.17 K): 0.483 | solubility (mole fraction) (in isobutyl acetate, 323.21 K): 0.539 | solubility (mole fraction) (in n-butyric acid, 278.17 K): 0.0834 | solubility (mole fraction) (in n-butyric acid, 283.27 K): 0.0952 | solubility (mole fraction) (in n-butyric acid, 288.45 K): 0.113 | solubility (mole fraction) (in n-butyric acid, 293.2 K): 0.129 | solubility (mole fraction) (in n-butyric acid, 298.26 K): 0.154 | solubility (mole fraction) (in n-butyric acid, 303.22 K): 0.179 | solubility (mole fraction) (in n-butyric acid, 308.2 K): 0.215 | solubility (mole fraction) (in n-butyric acid, 313.3 K): 0.253 | solubility (mole fraction) (in n-butyric acid, 318.19 K): 0.292 | solubility (mole fraction) (in n-butyric acid, 323.28 K): 0.34
